Reference: paper PMC5508519 (Bioorganic & medicinal chemistry letters, 2017)

Tests used:
[1] = target: T1, hM4 (Homo sapiens, UniProt P08173); test: calcium mobilization assay, hM4 CHO cells co-transfected with Gqi5, ACh EC80; type: cell-based; conditions: SAR text on Table 2
T1 sequence (P08173 1-479): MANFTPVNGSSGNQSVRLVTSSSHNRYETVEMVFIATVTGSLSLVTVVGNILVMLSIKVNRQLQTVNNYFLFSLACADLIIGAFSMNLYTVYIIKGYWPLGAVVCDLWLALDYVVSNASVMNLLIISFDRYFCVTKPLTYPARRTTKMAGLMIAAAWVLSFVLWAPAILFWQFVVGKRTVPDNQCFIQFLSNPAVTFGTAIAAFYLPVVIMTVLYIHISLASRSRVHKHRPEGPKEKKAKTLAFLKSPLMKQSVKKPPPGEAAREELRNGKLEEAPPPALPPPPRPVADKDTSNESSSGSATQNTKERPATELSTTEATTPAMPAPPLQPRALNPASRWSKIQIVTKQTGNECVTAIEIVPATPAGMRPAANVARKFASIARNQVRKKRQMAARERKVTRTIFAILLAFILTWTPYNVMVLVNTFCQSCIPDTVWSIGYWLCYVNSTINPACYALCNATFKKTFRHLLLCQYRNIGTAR

[2] = predicted hepatic clearance from human microsomal CLint; type: in vitro ADME; conditions: based on CLint data from microsomes
[3] = target: T2, M1 (Homo sapiens, UniProt P11229); test: calcium mobilization assay, hM1 CHO cells, approximate EC80 of ACh; type: cell-based; conditions: n = 1
T2 sequence (P11229 1-460): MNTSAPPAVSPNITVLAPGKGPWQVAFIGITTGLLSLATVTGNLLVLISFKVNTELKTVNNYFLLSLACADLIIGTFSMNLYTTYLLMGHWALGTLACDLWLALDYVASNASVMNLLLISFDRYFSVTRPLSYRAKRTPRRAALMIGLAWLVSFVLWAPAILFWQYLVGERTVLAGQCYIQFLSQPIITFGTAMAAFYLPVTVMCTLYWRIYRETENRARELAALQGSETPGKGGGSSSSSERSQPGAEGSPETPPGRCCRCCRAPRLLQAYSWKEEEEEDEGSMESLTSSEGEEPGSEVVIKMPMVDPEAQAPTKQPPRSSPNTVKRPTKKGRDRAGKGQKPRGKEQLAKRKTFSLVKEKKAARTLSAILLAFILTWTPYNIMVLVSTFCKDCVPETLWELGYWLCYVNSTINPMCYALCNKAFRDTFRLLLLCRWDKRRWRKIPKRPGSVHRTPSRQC

[4] = target: T3, M5 (Homo sapiens, UniProt P08912); test: calcium mobilization assay, hM5 CHO cells, approximate EC80 of ACh; type: cell-based; conditions: n = 1
T3 sequence (P08912 1-532): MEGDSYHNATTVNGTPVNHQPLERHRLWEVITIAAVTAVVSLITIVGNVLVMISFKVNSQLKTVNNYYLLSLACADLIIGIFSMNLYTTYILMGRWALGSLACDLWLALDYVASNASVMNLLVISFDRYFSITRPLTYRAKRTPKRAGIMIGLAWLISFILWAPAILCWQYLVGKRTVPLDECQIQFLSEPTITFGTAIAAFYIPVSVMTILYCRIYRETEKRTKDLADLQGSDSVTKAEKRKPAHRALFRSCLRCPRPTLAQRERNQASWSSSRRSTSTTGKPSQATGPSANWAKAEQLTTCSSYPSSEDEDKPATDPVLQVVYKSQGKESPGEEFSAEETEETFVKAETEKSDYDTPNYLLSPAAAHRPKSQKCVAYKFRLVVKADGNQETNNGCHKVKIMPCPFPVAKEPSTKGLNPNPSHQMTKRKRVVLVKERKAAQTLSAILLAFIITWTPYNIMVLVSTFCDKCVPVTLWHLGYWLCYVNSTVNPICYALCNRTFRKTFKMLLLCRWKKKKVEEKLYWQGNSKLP

SMILES | M4 inhibitory activity (in words) [1] | predicted hepatic clearance CLhep (human) [2] [mL/min/kg] | predicted hepatic clearance CLhep (rat) [mL/min/kg] | further results
O=C(C1CCN(c2cc(Oc3ccc(F)cc3F)ncn2)CC1)N1CCC2CCCCC2C1 (stereo not shown) [Compound 17d] | retained M4 inhibitory activity |  |  | 
COc1ccc2c(c1)CN(C(=O)C1CCN(c3cc(Oc4ccc(F)cc4F)ncn3)CC1)CC2 [Compound 17c] | retained M4 inhibitory activity |  |  | 
CCc1ccc(Oc2cc(N3CCC(C(=O)N4CCc5ccccc5C4)CC3)ncn2)cc1 [Compound 5] |  | 20.3 | 68.6 | 
COc1ccc2c(c1)CCN(C(=O)C1CCN(c3cc(Oc4ccc(F)cc4F)ncn3)CC1)C2 [Compound 17b] | retained M4 inhibitory activity |  |  | 
O=C(C1CCN(c2cc(Oc3ccc(F)cc3F)ncn2)CC1)N1Cc2ccccc2C1 [Compound 17e, (1-(6-(2,4-difluorophenoxy)pyrimidin-4-yl)piperidin-4-yl)(isoindolin-2-yl)methanone] |  | 5.56 | 36.5 | predicted CLhep with inclusion of binding terms in the well-stirred model (rat): 5.93 mL/min/kg; M1 % ACh Min [3]: 18.2 % ACh Min; M5 % ACh Min [4]: 42.6 % ACh Min
